Measurements as given in patent US20220340547A1, “INDOLE DERIVATIVE-CONTAINING INHIBITOR, PREPARATION METHOD THEREFOR AND APPLICATION THEREOF” (Shanghi Hansoh Biosoh Biomedical Co., Ltd., priority 2019, published 2022).

Experiments:
A431 cell line = test: Proliferation of A431 cell line (CellTiter-Glo); type: cell-based; conditions: Homo sapiens, A-431, 72 h
Procedure: Test Example 3. Determination of the Inhibitory Effect of the Compound of the Present Invention on the Proliferation of Ba/F3 EGFR Mutant Cell Line and A431 Cell Line
(§1) Experimental objective: The objective of this test example is to determine the inhibitory effect of the compound on the proliferation of Ba/F3 EGFR mutant cell line and A431 cell line
(§2) Experimental instruments: Microplate reader (BioTek Synergy H1), pipette (Eppendorf & Rainin).
(§3) A431 cells were cultured, and harvested after reaching a suitable density. The cells were adjusted to an appropriate cell concentration with the complete medium. The cell suspension were spread on a 96-well plate (90 μL per well), and the plate was placed in a 37° C., 5% CO2 incubator overnight to let the cells adhere to the wall. Solutions of the compound at different concentrations were formulated with DMSO and culture medium. Solvent control was set. The solution of the compound was added to the 96-well plate (10 L per well), and the plate was incubated in the 37° C., 5% CO2 incubator for 72 h. CellTiter-Glo solution was added and mixed well by shaking, and the plate was incubated in the dark for 10 minutes. The values were measured by BioTek Synergy H1 microplate reader.
(§4) Experimental Data Processing Method:
(§5) The inhibition rate was calculated using the […] signal value. The concentration and inhibition rate were fitted to a nonlinear regression curve by Graphpad Prism software to obtain the IC50 value.

[1] = biological target: Ba/F3 EGFR-D770-N771ins_SVD (Homo sapiens, UniProt P00533, DUP768-770, cells depend on it); test: Proliferation of Ba/F3 EGFR mutant cell line (CellTiter-Glo); type: cell-based, mouse; conditions: 72 h to 144 h, read-out: Ba/F3 EGFR-D770-N771ins_SVD IC50
Procedure: Determination of the Inhibitory Effect of the Compound of the Present Invention on the Proliferation of Ba/F3 EGFR Mutant Cell Line and A431 Cell Line
as §1, §2
as §3, with “Ba/F3 EGFR mutant” for “A431”, “The solution of the compound was added to the 96-well plate (10 L per well), and the plate was incubated in the 37° C., 5% CO2 incubator for 72 h.” left out
as §4, §5

EGFR D770_N771insNPG = EGFR D770_N771insNPG (Homo sapiens, UniProt P00533, INS770NPG); test: TR-FRET inhibition of kinase activity of EGFR exon 20 insertion mutation; type: biochemical
Source text: Determination of the Inhibitory Effect of the Compound of the Present Invention on the Kinase Activity of EGFR Exon 20 Insertion Mutation
Experimental objective: The objective of this test example is to determine the inhibitory effect of the compound on the kinase activity of EGFR exon 20 insertion mutation.
Experimental process: The experiment applied the TR-FRET (time-resolved fluorescence resonance energy transfer) method to study the inhibitory effect of the compound on the kinase activity of EGFR exon 20 insertion mutation. The experiment was carried out in a 384-well plate. Experimental buffer (50 mM HEPES, 1 mM EGTA, 10 mM MgCl2, 2 mM DTT, 0.01% Tween-20) was formulated. The compound was diluted in gradient to different concentrations with the experimental buffer. 2.5 μL of the solution was added to each well of the 384-well plate. 2.5 μL of diluted EGFR kinase solution (0.001-0.5 nM) was added, and the plate was incubated at room temperature for 10 minutes. 5 μL of ULight-poly GT/ATP mixed solution was added, and the plate was incubated at room temperature for 30 to 60 minutes. 5 μL of EDTA stop solution and 5 μL of Eu-labeled antibody detection solution were added, and the plate was incubated at room temperature for 1 hour.
as §4
The concentration and inhibition rate were fitted to a nonlinear regression curve by Graphpad Prism software to obtain the IC50 value.

Sequence of EGFR D770_N771insNPG (P00533 with tags, fused parts or gaps INS770NPG limits assumed): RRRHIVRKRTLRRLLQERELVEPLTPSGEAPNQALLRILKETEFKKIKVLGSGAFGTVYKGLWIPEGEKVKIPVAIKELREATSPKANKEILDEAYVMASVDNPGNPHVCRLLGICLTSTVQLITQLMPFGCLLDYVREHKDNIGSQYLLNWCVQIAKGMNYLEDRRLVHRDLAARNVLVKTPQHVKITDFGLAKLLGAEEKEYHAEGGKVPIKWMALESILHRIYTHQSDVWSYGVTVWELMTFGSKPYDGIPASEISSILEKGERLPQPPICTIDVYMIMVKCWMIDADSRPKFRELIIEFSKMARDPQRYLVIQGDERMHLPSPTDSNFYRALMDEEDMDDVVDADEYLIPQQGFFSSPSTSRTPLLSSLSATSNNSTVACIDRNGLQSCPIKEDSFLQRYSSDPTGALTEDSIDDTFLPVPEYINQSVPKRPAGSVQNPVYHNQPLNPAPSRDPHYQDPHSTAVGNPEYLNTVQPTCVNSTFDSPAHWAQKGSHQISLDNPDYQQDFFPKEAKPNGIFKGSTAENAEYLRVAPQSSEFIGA
Sequence of Ba/F3 EGFR-D770-N771ins_SVD (P00533 with tags, fused parts or gaps DUP768-770): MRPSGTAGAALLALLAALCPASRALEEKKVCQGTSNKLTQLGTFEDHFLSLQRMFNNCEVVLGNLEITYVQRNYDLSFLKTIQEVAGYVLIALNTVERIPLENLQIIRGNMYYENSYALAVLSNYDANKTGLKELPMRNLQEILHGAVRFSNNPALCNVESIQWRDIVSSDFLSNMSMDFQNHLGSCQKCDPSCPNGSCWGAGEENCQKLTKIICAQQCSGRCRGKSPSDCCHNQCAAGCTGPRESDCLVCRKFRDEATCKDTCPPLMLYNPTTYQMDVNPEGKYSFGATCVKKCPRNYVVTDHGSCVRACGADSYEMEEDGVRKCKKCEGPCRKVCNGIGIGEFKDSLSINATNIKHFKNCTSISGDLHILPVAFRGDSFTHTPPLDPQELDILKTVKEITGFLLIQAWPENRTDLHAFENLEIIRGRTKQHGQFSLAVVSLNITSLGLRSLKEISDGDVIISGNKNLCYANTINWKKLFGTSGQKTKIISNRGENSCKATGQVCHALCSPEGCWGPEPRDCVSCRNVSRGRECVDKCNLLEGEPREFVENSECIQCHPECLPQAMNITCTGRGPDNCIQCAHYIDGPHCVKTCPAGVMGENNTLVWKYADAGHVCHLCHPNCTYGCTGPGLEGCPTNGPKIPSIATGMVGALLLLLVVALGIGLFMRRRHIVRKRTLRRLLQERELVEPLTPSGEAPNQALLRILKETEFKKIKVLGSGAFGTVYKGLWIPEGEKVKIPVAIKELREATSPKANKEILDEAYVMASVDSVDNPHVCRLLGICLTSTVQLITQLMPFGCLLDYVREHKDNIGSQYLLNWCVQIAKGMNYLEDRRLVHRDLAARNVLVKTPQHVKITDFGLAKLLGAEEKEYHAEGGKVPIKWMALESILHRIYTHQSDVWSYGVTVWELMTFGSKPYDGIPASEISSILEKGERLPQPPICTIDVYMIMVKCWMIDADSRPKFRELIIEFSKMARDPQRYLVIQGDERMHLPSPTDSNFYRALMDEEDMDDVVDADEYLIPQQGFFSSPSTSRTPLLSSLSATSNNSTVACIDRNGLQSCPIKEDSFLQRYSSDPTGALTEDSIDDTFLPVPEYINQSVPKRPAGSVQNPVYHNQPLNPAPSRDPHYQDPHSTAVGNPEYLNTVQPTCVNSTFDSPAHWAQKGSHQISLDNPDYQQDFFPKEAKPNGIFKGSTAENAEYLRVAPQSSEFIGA

SMILES | IC50 (A431 cell line) | GI50 [1] | IC50 (EGFR D770_N771insNPG)
CC#CC(=O)Nc1cc(Nc2ncc(C(=O)OC(C)C)c(-c3cn(C)c4ccccc34)n2)c(OC)cc1N(C)CC1CCCN1C (centres unmarked) [Example 1, Isopropyl 2-((5-(but-2-ynamido)-2-methoxy-4-(methyl((1-methylpyrrolidin-2-yl)methyl)amino)phenyl)amino)-4-(1-methyl-1H-indol-3-yl)pyrimidine-5-carboxylate] | 537000 pM | 76000 pM | –
C=CC(=O)Nc1cc(Nc2ncc(C(=O)OC(C)C)c(-c3cn(C)c4ccccc34)n2)c(OC)cc1N1CC2(CN(C)C2)C1 [Example 26, Isopropyl 2-((5-acrylamido-2-methoxy-4-(6-methyl-2,6-diazaspiro[3.3]heptan-2-yl)phenyl)amino)-4-(1-methyl-1H-indol-3-yl)pyrimidine-5-carboxylate] | – | – | 360 pM
C=CC(=O)Nc1cc(Nc2ncc(-c3cnn(C)c3)c(-c3cn(C4CC4)c4ccccc34)n2)c(OC)cc1N1C[C@H]2CN(C)C[C@H]2C1 [Example 43, N-(5-((4-(1-Cyclopropyl-1H-indol-3-yl)-5-(1-methyl-1H-pyrazol-4-yl)pyrimidin-2-yl)amino)-4-methoxy-2-((3aR,6aS)-5-methylhexahydropyrrolo[3,4-c]pyrrol-2(1H)-yl)phenyl)acrylamide] | – | 21000 pM | 290 pM
C=CC(=O)Nc1cc(Nc2ncc(C(=O)OC(C)C)c(-c3cn(C)c4ccccc34)n2)c(OC)cc1N1C[C@H]2CN(C)C[C@H]2C1 [Example 63, Isopropyl 2-((5-acrylamido-2-methoxy-4-((3aR,6aS)-5-methylhexahydropyrrolo[3,4-c]pyrrol-2(1H)-yl)phenyl)amino)-4-(1-methyl-1H-indol-3-yl)pyrimidine-5-carboxylate] | – | – | 620 pM
C=CC(=O)Nc1cc(Nc2ncc(-c3cnn(C)c3)c(-c3cn(C4CC4)c4ccccc34)n2)c(OC)cc1N1C[C@@H]2CCN(C)[C@@H]2C1 [Example 65, N-(5-((4-(1-Cyclopropyl-1H-indol-3-yl)-5-(1-methyl-1H-pyrazol-4-yl)pyrimidin-2-yl)amino)-4-methoxy-2-((3aS,6aS)-1-methylhexahydropyrrolo[3,4-b]pyrrol-5(1H)-yl)phenyl)acrylamide] | – | 15100 pM | 290 pM
C=CC(=O)Nc1cc(Nc2ncc(-c3cnn(C)c3)c(-c3cn(C4CC4)c4ccccc34)n2)c(OC)cc1N1C[C@H]2CCN(C)[C@H]2C1 [Example 68] | – | 15400 pM | 170 pM
C=CC(=O)Nc1cc(Nc2ncc(-c3ccc(F)cc3F)c(-c3cn(C4CC4)c4ccccc34)n2)c(OC)cc1N1C[C@H]2CN(C)C[C@H]2C1 [Example 69, N-(5-((4-(1-Cyclopropyl-1H-indol-3-yl)-5-(2,4-difluorophenyl)pyrimidin-2-yl)amino)-4-methoxy-2-((3aR,6aS)-5-methylhexahydropyrrolo[3,4-c]pyrrol-2(1H)-yl)phenyl)acrylamide] | – | 40000 pM | –
C=CC(=O)Nc1cc(Nc2ncc(-c3ccnn3C)c(-c3cn(C4CC4)c4ccccc34)n2)c(OC)cc1N1C[C@H]2CN(C)C[C@H]2C1 [Example 70, N-(5-((4-(1-Cyclopropyl-1H-indol-3-yl)-5-(1-methyl-1H-pyrazol-5-yl)pyrimidin-2-yl)amino)-4-methoxy-2-((3aR,6aS)-5-methylhexahydropyrrolo[3,4-c]pyrrol-2(1H)-yl)phenyl)acrylamide] | – | 47400 pM | –
C=CC(=O)Nc1cc(Nc2ncc(C#N)c(-c3cn(C4CC4)c4ccccc34)n2)c(OC)cc1N1CC(N(C)C)C1 [Example 74, N-(5-((5-Cyano-4-(1-cyclopropyl-1H-indol-3-yl)pyrimidin-2-yl)amino)-2-(3-(dimethylamino)azetidin-1-yl)-4-methoxyphenyl)acrylamide] | – | – | 640 pM
C=CC(=O)Nc1cc(Nc2ncc(C#N)c(-c3cn(C4CC4)c4ccccc34)n2)c(OC)cc1N1CC[C@H](N(C)C)C1 [Example 77, (S)—N-(5-((5-cyano-4-(1-cyclopropyl-1H-indol-3-yl)pyrimidin-2-yl)amino)-2-(3-(dimethylamino)pyrrolidin-1-yl)-4-methoxyphenyl)acrylamide] | – | – | 910 pM
C=CC(=O)Nc1cc(Nc2ncc(-c3cnn(C)c3)c(-c3cn(C4CC4)c4ccccc34)n2)c(OC)cc1N(C)CCN(C)C [Example 85, N-(5-((4-(1-Cyclopropyl-1H-indol-3-yl)-5-(1-methyl-1H-pyrazol-4-yl)pyrimidin-2-yl)amino)-2-((2-(dimethylamino)ethyl)(methyl)amino)-4-methoxyphenyl)acrylamide] | – | 17400 pM | 270 pM
C=CC(=O)Nc1cc(Nc2ncc(C#N)c(-c3cn(C4CC4)c4ccccc34)n2)c(OC)cc1N1C[C@@H]2CCN(C)[C@@H]2C1 [Example 110, N-(5-((5-Cyano-4-(1-cyclopropyl-1H-indol-3-yl)pyrimidin-2-yl)amino)-4-methoxy-2-((3aS,6aS)-1-methylhexahydropyrrolo[3,4-b]pyrrol-5(1H)-yl)phenyl)acrylamide] | – | – | 530 pM
C=CC(=O)Nc1cc(Nc2ncc(C#N)c(-c3cn(C4CC4)c4cc(OC)ccc34)n2)c(OC)cc1N(C)CCN(C)C [Example 112, N-(5-((5-Cyano-4-(1-cyclopropyl-6-methoxy-1H-indol-3-yl)pyrimidin-2-yl)amino)-2-((2-(dimethylamino)ethyl)(methyl)amino)-4-methoxyphenyl)acrylamide] | – | 26700 pM | 170 pM
C=CC(=O)Nc1cc(Nc2ncc(C#N)c(-c3cn(C4CC4)c4ccccc34)n2)c(OC)cc1OCCN(C)C [Example 113, N-(5-((5-Cyano-4-(1-cyclopropyl-1H-indol-3-yl)pyrimidin-2-yl)amino)-2-(2-(dimethylamino)ethoxy)-4-methoxyphenyl)acrylamide] | – | – | 700 pM
C=CC(=O)Nc1cc(Nc2ncc(C#N)c(-c3cn(C4CC4)c4cc(F)ccc34)n2)c(OC)cc1N(C)CCN(C)C [Example 114, N-(5-((5-Cyano-4-(1-cyclopropyl-6-fluoro-1H-indol-3-yl)pyrimidin-2-yl)amino)-2-((2-(dimethylamino)ethyl)(methyl)amino)-4-methoxyphenyl)acrylamide] | – | 42500 pM | 610 pM
C=CC(=O)Nc1cc(Nc2ncc(C#N)c(-c3cn(C4CC4)c4c(OC)cccc34)n2)c(OC)cc1N(C)CCN(C)C [Example 119, N-(5-((5-Cyano-4-(1-cyclopropyl-7-methoxy-1H-indol-3-yl)pyrimidin-2-yl)amino)-2-((2-(dimethylamino)ethyl)(methyl)amino)-4-methoxyphenyl)acrylamide] | – | 45400 pM | 490 pM
C=CC(=O)Nc1cc(Nc2ncc(C#N)c(-c3cn(C4CC4)c4ncccc34)n2)c(OC)cc1N(C)CCN(C)C [Example 139, N-(5-((5-Cyano-4-(1-cyclopropyl-1H-pyrrolo[2,3-b]pyridin-3-yl)pyrimidin-2-yl)amino)-2-((2-(dimethylamino)ethyl)(methyl)amino)-4-methoxyphenyl)acrylamide] | – | – | 680 pM
